Tests used:
eIF1-eIF4G1 interaction = target: T1, eIF1-eIF4G1 interaction (Homo sapiens, UniProt Q04637); assay: GST pull down of His-eIF1 with GST-eIF4G1; assay type: binding; conditions: GST-eIF4G1 (aa 675-725) with His-eIF1, vs DMSO
T1 construct: GST-eIF4G1 (aa 675-725) was incubated with His-eIF1; made in house; host or cells: His-eIF1: E. coli BL21
Source text: FIGS. 1A-G: Identification and initial characterization of eIF1-eIF4G1 inhibitors using a high-throughput drug screen (HTS). (1A) A flowchart describing the steps of the recombinant eIF1-eIF4G1 split-RL HTS. (1B) Selection of drugs that inhibit leaky scanning. HEK293T cells were transfected with a short 5′UTR bearing GFP reporter gene described on the top, treated with the indicated HTS hits, and then analyzed by western blot with GFP antibody. US and DS denote upstream and downstream AUG initiation sites, respectively. (1C) A graph showing the change in the ratio of the upstream and downstream AUG following treatment with the indicated drugs. (1D) The chemical structure of the eIF1-eIF4G1 inhibitors, i14G1-10 and i14G1-12. (1E) His-tagged eIF4G1 and His-tagged eIF1 were expressed in BL21 bacteria and purified using nickel NTA beads. Purified His-tagged eIF4G1 and His-tagged eIF1 were incubated with the indicated doses of either i14G1-10 (0-256 μM) or i14G1-12 (0-256 μM) for 5 minutes, followed by fluorescence measurement. For eIF4G1 excitation was at 280 nm and emission was at 350 nm. For eIF1 excitation was at 274 nm and emission was at 304 nm. The data shown represent three independent replicates. IC50 was calculated using Graphpad prism 9. (1F-1G) Western blots of GST pull down. […]

eIF2α S52A mutant cells = assay: Polysome profiling and real-time PCR in eIF2α S52A mutant cells; assay type: cell-based, mouse; conditions: i14G1-10 30 μM, i14G1-12 15 μM, 3 h; for translation of ISR genes in polysome fractions: S52A cells; for overall translation, polysome to monosome ratio (P/M): S52A mutant cells
Source text: FIGS. 6A-G: i14G1-10 and i14G1-12 uncover roles of the eIF4G1-eIF1 complex in ISR, cell cycle and cell survival. […] (6B). Ribo-seq and TI-seq read tracks of representative stress response-associated mRNAs (i.e., ATF3, and GADD45A) in DMSO (black), i14G1-10 (red), and i14G1-12 (green) samples. The red triangle represents 5′UTR TIS codons and the green denotes annotated TIS. Black arrows show the translation direction. (6C) Mouse embryonic fibroblasts (MEFs) control cells and eIF2αS52A mutant MEF cells were treated with Thapsigargin (1 μM) for 1h. Cells were lysed, and cell lysate was analyzed using western blot with the indicated antibodies. (6D) Control cells and eIF2αS52A mutant MEF cells were treated with DMSO, i14G1-10 (30 μM) or i14G1-12 (15 μM) for 3 h, cells were lysed in polysome buffer and loaded onto sucrose density gradient for polysome separation followed by fractionation. The graph presents the polysomes vs monosomes ratio in control MEFs (purple) and eIF2αS52A mutant cells (blue). (6E) Fractions were pooled (from 6D) according to the polysome profile as free (grey), light (blue), and heavy (yellow) polysomal fractions. cDNA was prepared from each fraction pool and real-time PCR was performed for the indicated stress response genes. The data are shown as mean±SEM, n=3. The asterisks denote statistically significant differences compared to DMSO, according to Student's t-tests (one-tailed, paired), *p<0.05; **p<0.01. (6F-G). HEK293T cells were transfected with HA-eIF1 or HA-eIF4E, 48 h later, treated with (6F) 1 μM Thapsigargin or (6G) 250 nM Torin-1. Cell lysates were subjected to immunoprecipitation with HA-agarose beads to precipitate HA-eIF1 and HA-eIF4E to check for co-IP of eIF4G1 using western blot (left). The graphs on the right represent the relative chemiluminescence signal intensity of the co-immunoprecipitation of eIF4G1 with HA-eIF1 or HA-eIF4E of 4 independent experiments. The asterisks denote statistically significant difference compared to DMSO *p<0.05; **p<0.01.
FIGS. 7A-E: (7A) Ribo-seq and TI-seq read tracks of representative stress response-associated mRNAs (DDIT3 and GADD34) in DMSO (black), i14G1-10 (red), and i14G1-12 (green) samples. The red triangle represents 5′UTR TIS codons and the green denotes annotated TIS. Black arrows show the translation direction. […] The graphs in the lower panel are the quantification of ATF4's uORF1′, uORF1, uORF2, and main-ORF reads of the Ribo-seq data. The asterisks denote statistically significant difference compared to DMSO, according to Student's t-tests (one-tailed, paired). **p<0.01, ***p<0.001, ****p<0.0001. (7C) HEK293T cells were treated with DMSO, i14G1-10, and i14G1-12 for 3 h, lysed and subjected to sucrose gradient sedimentation and fractionation. […]

T1 sequence (Q04637 675-725): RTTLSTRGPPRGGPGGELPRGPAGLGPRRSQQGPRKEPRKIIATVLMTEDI

SMILES | association of eIF1 with eIF4G1 (eIF1-eIF4G1 interaction) | translation of ISR genes in polysome fractions (eIF2α S52A mutant cells) | overall translation, polysome to monosome ratio (P/M) (eIF2α S52A mutant cells)
O=C(/C=C/Sc1ccc(C(F)(F)F)cn1)c1ccccc1 [i14G1-10] | decrease in the association of eIF1 with eIF4G1 | upregulated | not significantly
Cn1ccnc1S/C(=C/C=C(C#N)C#N)c1ccc(Cl)cc1 [i14G1-12] | decrease in the association of eIF1 with eIF4G1 | upregulated | further inhibited

Reference: patent US20250090510A1, “eIF4G1-eIF1 INHIBITORS AND USE THEREOF” (YEDA RESEARCH AND DEVELOPMENT CO. LTD., priority 2022, published 2025)
